In the experiment the target is human V2 vasopressin receptor subtype (Homo sapiens, UniProt P30518). Nature of the experiment: Vasopressin binding in CHO cell membranes expressing human vasopressin V2 subtype receptors. The following applies: 100 nM, [3H]arginine vasopressin. The text has this: Vasopressin Binding in Chinese Hamster Ovary Cell Membranes Expressing Human Vasopressin V2 Subtype Receptors
Chinese Hamster Ovary (CHO) cells stably transfected with the human V2 subtype receptors were obtained from M. Thibonnier, Case Western Reserve University School of Medicine, Cleveland, Ohio.
A. Passaging and Amplification of Cells:
CHO cells transfected with the human vasopressin V2 subtype receptors obtained from M. Thibonnier (pZeoSV vector) are allowed to grow to confluency (approx. >90%) in T-150 flasks under sterile conditions, in a cell culture medium of F-12 Nutrient Mixture (HAM) with L-glutamine (Gibco Cat. # 11765-054) containing 15 mM HEPES (Gibco Cat. # 15630-080), 1% antibiotic/antimycotic (add 5 mL 100×, Gibco Cat. # 15240-062 per 500 mL F-12), 250 μg/mL Zeocin (add 1.25 mL of 100 mg/mL Invitrogen R-250-01 per 500 mL F-12) and 10% Fetal Bovine Serum (Qualified, heat inactivated, Gibco Cat. # 16140-063). The medium is removed by aspiration and the cells washed with 10 mL of Hank's Balanced Salt solution (Gibco Cat. # 14175-095). The salt solution is removed by aspiration and the cells trypsinized with 5 mL of trypsin-EDTA (0.05% trypsin, 0.53 mM EDTA-4Na, Gibco Cat. # 25300-070) for 1 min. The trypsin is removed by aspiration and the cells dislodged by tapping. Cell Culture medium (e.g. 30 mL for 1:30 split) is immediately added and mixed well to inactivate trypsin. 1 mL of detached cells is added to new culture flasks containing fresh Cell Culture medium (e.g. into 25 mL per T-150 flask), and mixed gently. The cells are incubated at 37° C. in 5% CO2. The medium is changed at 3 to 4 day interval (or as appropriate). The cells grow to confluency (approx. >75%–95%) within 7–8 days. All steps are done under sterile conditions. B. Membrane Preparation: The cells are washed twice gently with Hank's Balanced Salt solution (e.g. use 10 mL per T-150 flask). The excess solution is removed and the cells bathed for 15–30 min. in an enzyme-free Cell Dissociation Buffer (e.g. use 8 mL Hank's Based, Gibco Cat. # 13150-016 per T-150 flask) until cells are loosened. The contents are transferred to centrifuge tubes (50 mL) kept in an ice bath. All subsequent steps are done at 4° C. The tubes are centrifuged at 300× g for 15 min (1380 rpm on SORVAL, Model RT6000D, using the rotor for 50 mL tubes). The supernatant is discarded and the cells suspended in homogeneizing buffer(10 mM Tris-HCl containing 0.25 M sucrose and 1 mM EDTA, pH 7.4) ensuring that the volume of the buffer is about ten times the volume of the cell pellet. The cells are pooled into a centrifuge tube (50 mL) and homogenized with a Polytron at setting 6 for 10 sec. The homogenate is transferred into a Potter-Elvjehm homogeneizer and homogenized with 3 strokes. The homogenate is centrifuged at 1500×g for 60 min at 4° C. (3100 rpm using SORVAL, model RT6000D, using the rotor for 50 mL tubes). The pellet is discarded. The supernatant is centrifuged at 100,000×g for 60 min. at 4° C. (Beckman L8-80M ultracentrifuge; spin at 37,500 rpm with rotor type 70 Ti for 50 mL tubes; 38,000 rpm with type 80Ti for 15 mL tubes; or 35,800 rpm with rotor type 45Ti). The supernantant is discarded and the pellet suspended in 3 to 4 mL of Tris buffer (50 mM TRIS-HCl, pH 7.4). The protein content is estimated by the Bradford or Lowry method. The volume of the membrane suspension is adjusted with the membrane buffer (50 mM Tris-HCl containing 0.1% BSA and 0.1 mM PMSF) to give 3.0 mg/mL (or as appropriate) of protein. The membranes are aliquoted and stored at −70° C. C. Radioligand Binding Assay: In wells of a 96-well format microtiter plate, is added 90, 110 or 130 μL (to make up a final volume of 200 μL) of assay buffer containing 50 mM of Tris-HCl (pH 7.4), […], 1 mg % aprotinin, 1 mg % leupeptin, 2 mg % 1,10-phenanthroline, 10 mg % trypsin inhibitor, and 0.1 mM PMSF. The inhibitors are added on the day of the experiment. […]

Chain of human V2 vasopressin receptor subtype (P30518 whole entry): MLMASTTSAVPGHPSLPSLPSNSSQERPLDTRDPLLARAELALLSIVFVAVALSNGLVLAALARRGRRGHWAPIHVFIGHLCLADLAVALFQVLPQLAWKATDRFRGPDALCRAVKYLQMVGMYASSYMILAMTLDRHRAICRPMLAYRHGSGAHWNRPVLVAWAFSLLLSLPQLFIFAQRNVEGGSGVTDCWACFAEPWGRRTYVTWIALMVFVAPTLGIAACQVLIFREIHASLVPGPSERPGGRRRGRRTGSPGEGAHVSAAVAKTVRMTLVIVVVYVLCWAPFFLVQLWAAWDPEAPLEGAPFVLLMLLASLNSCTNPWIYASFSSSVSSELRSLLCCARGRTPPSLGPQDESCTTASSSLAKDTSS

As for `O=C(c1ccc(C2CCCCC2)cc1)N1Cc2ccc(C(=O)N3CCC[C@H]3CN3CCCC3)n2Cc2ccccc21` [Example 46, [10-(4-Cyclohexyl-benzoyl)-10,11-dihydro-5H-pyrrolo[2,1-c][1.4]benzodiazepin-3-yl][(2S)-2-(1-pyrrolidinylmethyl)pyrrolidinyl]methanone], the “V2 % inhibition at 100 nM” value is 14%.
On the same count and under the same terms, for `CN(C)[C@@H]1CCN(C(=O)c2ccc3n2Cc2ccccc2N(C(=O)c2ccc(C4CCCCC4)cc2)C3)C1` [Example 47, [10-(4-Cyclohexyl-benzoyl)-10,11-dihydro-5H-pyrrolo[2,1-C][1,4]benzodiazepin-3-yl][(3R)-3-(dimethylamino)pyrrolidinyl]methanone] the value was 0%; for `O=C(c1ccc2n1Cc1ccccc1N(C(=O)c1ccc(C3CCCCC3)cc1)C2)N1CCN(CCO)CC1` [Example 48, [10-(4-Cyclohexyl-benzoyl)-10,11-dihydro-5H-pyrrolo[2,1-c][1,4]benzodiazepin-3-y][4-(2-hydroxyethyl)-1-piperazinyl]methanone], 14%.
`O=C(NCCc1ccccn1)c1ccc2n1Cc1ccccc1N(C(=O)c1ccc(C3CCCCC3)cc1)C2` [Example 49, 10-(4-Cyclohexyl-benzoyl)-N-[2-(2-pyridinyl)ethyl]-10,11-dihydro-5H-pyrrolo[2,1-c][1,4]benzodiazepine-3-carboxamide]: the inhibition at 0.1 µM worked out at 10%.
As for `O=C(NCc1ccccn1)c1ccc2n1Cc1ccccc1N(C(=O)c1ccc(C3CCCCC3)cc1)C2` [Example 50, 10-(4-Cyclohexyl-benzoyl)-N-(2-pyridinylmethyl)-10,11-dihydro-5H-pyrrolo[2,1-c][1,4]benzodiazepine-3-carboxamide], the inhibition at 0.1 µM stood at 15%.
With `O=C(NCc1cccnc1)c1ccc2n1Cc1ccccc1N(C(=O)c1ccc(C3CCCCC3)cc1)C2` [Example 51, 10-(4-Cyclohexyl-benzoyl)-N-(3-pyridinylmethyl)-10,11-dihydro-5H-pyrrolo [2,1-c][1,4]benzodiazepine-3-carboxamide], the inhibition at 0.1 µM came to 7%.
In the case of `CN(CCc1ccccn1)C(=O)c1ccc2n1Cc1ccccc1N(C(=O)c1ccc(C3CCCCC3)cc1)C2` [Example 52, 10-(4-Cyclohexyl-benzoyl)-N-methyl-N-[2-(2-pyridinyl)-ethyl]-10,11-dihydro-5H-pyrrolo[2,1-c][1,4]benzodiazepine-3-carboxamide], the inhibition at 0.1 µM is 8%.
Take `O=C(NCc1ccncc1)c1ccc2n1Cc1ccccc1N(C(=O)c1ccc(C3CCCCC3)cc1)C2` [Example 53, 10-(4-Cyclohexyl-benzoyl)-N-(4-pyridinylmethyl)-10,11-dihydro-5H-pyrrolo[2,1-c][1,4]benzodiazepine-3-carboxamide]: the inhibition at 0.1 µM was 2%.
In the case of `O=C(c1ccc2n1Cc1ccccc1N(C(=O)c1ccc(C3CCCCC3)cc1)C2)N1CCN(c2ccncc2)CC1` [Example 54, [10-(4-Cyclohexyl-benzoyl)-10,11-dihydro-5H-pyrrolo[2,1-c][1,4]benzpdiazepin-3-yl][4-(4-pyridinyl)-1-piperazinyl]-methanone], the “V2 % inhibition at 100 nM” value amounted to 6%.
Take `CN(CCc1ccncc1)C(=O)c1ccc2n1Cc1ccccc1N(C(=O)c1ccc(C3CCCCC3)cc1)C2` [Example 55, 10-(4-Cyclohexyl-benzoyl)-N-methyl-N-[2(4-pyridinyl)ethyl]-10,11-dihydro-5H-pyrrolo[2,1-c][1,4]benzodiazepine-3-carboxamide]: the inhibition at 0.1 µM stood at 6%.
The same measure, in the same setting: then `O=C(c1ccc(C2CCCCC2)cc1)N1Cc2ccc(C(=O)n3ccnc3)n2Cc2ccccc21` [Example 56, 1H-Imidazol-1-yl-[10-(4-cyclohexyl-benzoyl)-10,11-dihydro-5H-pyrrolo[2,1-c][1,4]benzodiazepin-3-yl]-methanone], with -2%; and `CN(Cc1cccnc1)C(=O)c1ccc2n1Cc1ccccc1N(C(=O)c1ccc(C3CCCCC3)cc1)C2` [Example 57, 10-(4-Cyclohexyl-benzoyl)-N-methyl-N-(3-pyridinylmethyl)-10,11-dihydro-5H-pyrrolo[2,1-c][1,4]benzodiazepine-3-carboxamide], with 4%.

As a reminder, the inhibition is the drop in the measured response relative to a control, in per cent.

(Values after US7202239B2, “Cyclohexylphenyl carboxamides tocolytic oxytocin receptor antagonists” (Wyeth, priority 2001, dated 2007).)
